Test results reported in PubChem BioAssay (NCI).
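1) Cells in 96-well plates. 2) Compound, 48 h, 5 concentrations. 3) Linear interpolation between surrounding doses. 4) Unreached endpoint = highest concentration. At the GI50, growth is halved. TGI is the concentration that stops growth completely.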

Columns and labels:
Assay in all cases: NCI anticancer screen, dose series, 48 h
SF-268 CNS = test system: SF-268 CNS
MOLT-4 leukemia = test system: MOLT-4 leukemia
HT29 colon = test system: HT29 colon
RPMI-8226 leukemia = test system: RPMI-8226 leukemia
SNB-19 CNS = test system: SNB-19 CNS
NCI-H460 lung = test system: NCI-H460 lung
UACC-62 melanoma = test system: UACC-62 melanoma
SW-620 colon = test system: SW-620 colon
A549 NSCLC = test system: A549 NSCLC
U251 CNS = test system: U251 CNS
SNB-75 CNS = test system: SNB-75 CNS

SMILES | TGI (SF-268 CNS) [µM] | TGI (MOLT-4 leukemia) [µM] | TGI (HT29 colon) [µM] | TGI (RPMI-8226 leukemia) [µM] | TGI (SNB-19 CNS) [µM] | TGI (NCI-H460 lung) [µM] | TGI (UACC-62 melanoma) [µM] | TGI (SW-620 colon) [µM] | TGI (A549 NSCLC) [µM] | TGI (U251 CNS) [µM] | TGI (SNB-75 CNS) [µM] | GI50 (U251 CNS) [nM] | GI50 (SNB-75 CNS) [µM] | GI50 (SF-268 CNS) [nM] | GI50 (MOLT-4 leukemia) [nM] | GI50 (HT29 colon) [nM] | GI50 (RPMI-8226 leukemia) [nM] | GI50 (NCI-H460 lung) [nM] | GI50 (SW-620 colon) [nM] | GI50 (A549 NSCLC) [nM]
Cc1ccc(S(=O)(=O)N/N=c2\c(C)c(C3=NS(=O)(=O)c4cc(S(N)(=O)=O)c(Cl)cc4N3)oc3c(Cl)cc(Cl)cc23)cc1 | > 100 | > 100 | > 100 | > 100 | > 100 | > 100 | > 100 | 22.9 | > 100 | 67.9 | > 100 | – | – | – | – | – | – | – | – | –
O=[N+]([O-])c1ccc2c(c1)Nc1c3ccccc3nc3cccc-2c13 | 40.5 | 34.6 | > 51.6 | > 39 | 47.6 | 12.5 | 18.1 | 15.8 | 15.9 | 18.6 | 11.7 | – | – | – | – | – | – | – | – | –
Cc1cc2c(cc1C)[n+](=O)c(C#N)c(Cl)n2[O-] | > 100 | 48.5 | 19.7 | 55.6 | > 100 | 24.2 | 29.6 | 41.6 | 80.8 | 70.9 | 45.2 | – | – | – | – | – | – | – | – | –
CC(C)OC(=O)C1=C(O)c2ccccc2S(=O)(=O)N1 | > 100 | > 100 | > 100 | – | > 100 | > 100 | > 100 | > 100 | > 100 | > 100 | > 100 | – | – | – | – | – | – | – | – | –
O=C(O)NCc1ccccc1 (tested in a mixture with another compound) | > 100 | 45.9 | > 100 | 31.1 | > 100 | > 87.1 | 37.2 | > 100 | > 100 | > 77.6 | 60.6 | – | – | – | – | – | – | – | – | –
CCOC(=O)[C@H]1Nc2c(cccc2[N+](=O)[O-])[C@H]2OCC[C@@H]12 | > 100 | > 100 | > 100 | > 100 | > 100 | > 100 | > 100 | > 100 | > 100 | > 100 | > 100 | – | – | – | – | – | – | – | – | –
Oc1c2c(c3c4c1N=CC=4CCN=3)-c1c(Br)cc(Br)cc1CCN2 | 15.5 | – | 7.66 | 17.5 | > 35.6 | 12 | 2.77 | 6.03 | 10.3 | 12.2 | 22.6 | – | – | – | – | – | – | – | – | –
C=C1CC[C@@H](Br)C(C)(C)[C@]12CCC(C)(O)C(Cl)C2 (stereo not given in full) | 32.6 | 38.3 | 33.4 | 40.2 | 43.4 | 32.1 | 41.4 | 27.2 | 45.2 | 29.7 | 78.1 | – | – | – | – | – | – | – | – | –
CC(=O)OC/C=C/Cn1ncc(=O)[nH]c1=O | > 100 | > 100 | > 100 | > 100 | > 100 | > 100 | – | > 100 | > 100 | > 100 | > 100 | – | – | – | – | – | – | – | – | –
Nc1nncc2c1ccn2C1OC(CO)C(O)C1O (stereo not given) | > 100 | > 100 | > 100 | > 100 | > 100 | > 100 | > 100 | > 100 | > 100 | > 100 | > 100 | – | – | – | – | – | – | – | – | –
CC1CCC(O)(C(C)(C(=O)O)c2ccccc2)CC1 (stereo not given) | > 100 | > 100 | > 100 | – | > 100 | > 100 | > 100 | > 100 | > 100 | > 100 | – | – | – | – | – | – | – | – | – | –
COc1cc(N/N=C/C#N)cc(OC)c1OC | > 10 | > 10 | > 10 | 5.68 | > 10 | > 10 | > 10 | > 10 | > 10 | > 10 | > 10 | – | – | – | – | – | – | – | – | –
CCOC(=O)Nc1cc2c(c(N)n1)N=C(c1ccccc1)[C@H](C)N2 | > 100 | 14.5 | – | 22.4 | 87.5 | 0.0464 | 21.2 | > 100 | > 100 | – | – | < 0.1 | 17.9 | – | – | – | – | – | – | –
O=C(O)CCSCc1ccc(I)cc1 | > 100 | > 100 | > 100 | > 100 | > 100 | > 100 | > 100 | > 100 | > 100 | > 100 | > 100 | – | – | – | – | – | – | – | – | –
CCC1CN2CCC1CC2 (stereo not given) | > 100 | > 100 | > 100 | > 100 | > 100 | > 100 | > 100 | > 100 | > 100 | > 100 | > 100 | – | – | – | – | – | – | – | – | –
O=C(N/C(=C\c1cccc([N+](=O)[O-])c1)c1nc2[nH]c(=S)[nH]c(=O)c2[nH]1)c1ccccc1 | > 100 | > 100 | > 100 | > 100 | > 100 | > 100 | > 100 | > 100 | > 100 | > 100 | > 100 | – | – | – | – | – | – | – | – | –
NC(=S)Nc1cc(Cl)ccc1Cl | > 100 | > 100 | > 100 | > 100 | > 100 | > 100 | > 100 | > 100 | > 100 | > 100 | > 100 | – | – | – | – | – | – | – | – | –
CCCCCCCCCCCCCCCC(=O)OCC1CCCN2CCCCC12 (stereo not given) | > 100 | > 100 | > 100 | > 100 | > 100 | > 100 | > 100 | > 100 | > 100 | > 100 | > 100 | – | – | – | – | – | – | – | – | –
C/C(=N\Oc1cc(Cl)ncn1)c1ccccn1 | > 100 | > 100 | > 100 | > 100 | > 100 | 67.9 | > 100 | > 100 | > 100 | > 100 | > 100 | – | – | – | – | – | – | – | – | –
CC[C@H](Nc1nc(N)nc(C)c1C#N)c1nc2cccc(NCc3ccc(C(=O)NO)cc3)c2c(=O)n1-c1ccccc1 | 3.19 | > 100 | 4.88 | 9.78 | – | 4.76 | – | 3.92 | 5.43 | – | 3.97 | – | 0.711 | 1330 | 2340 | 1820 | 2270 | 1850 | 1700 | 2350
O=C(CCl)NC(Cc1ccc(F)cc1)C(=O)O (stereo not given) | > 100 | > 100 | > 100 | > 100 | > 100 | > 100 | > 100 | > 100 | > 100 | > 100 | > 100 | – | – | – | – | – | – | – | – | –
